Laboratory results: PubChem BioAssay AID720495 (Broad Institute, 2013)
“And” between values parts separate entries of the source, which are not always exact repeats. Equal entries are not always repeated. Records with an inconclusive call do not appear. The source made the active and inactive calls. No rule for the calls is given here.

Molecular target: Protein AF-9 (Homo sapiens) (UniProt P42568)
Assay: AF9 binding to AF4 blockers, potency – biochemical, cherry-picked samples, plate reader, dose response (AID 720495)
Conditions: biochemical protein-protein interaction assay; for activity change, negative = inhibition: at 10 µM (top of the series)

Chain of Protein AF-9 (Homo sapiens) (P42568 whole entry, looked up): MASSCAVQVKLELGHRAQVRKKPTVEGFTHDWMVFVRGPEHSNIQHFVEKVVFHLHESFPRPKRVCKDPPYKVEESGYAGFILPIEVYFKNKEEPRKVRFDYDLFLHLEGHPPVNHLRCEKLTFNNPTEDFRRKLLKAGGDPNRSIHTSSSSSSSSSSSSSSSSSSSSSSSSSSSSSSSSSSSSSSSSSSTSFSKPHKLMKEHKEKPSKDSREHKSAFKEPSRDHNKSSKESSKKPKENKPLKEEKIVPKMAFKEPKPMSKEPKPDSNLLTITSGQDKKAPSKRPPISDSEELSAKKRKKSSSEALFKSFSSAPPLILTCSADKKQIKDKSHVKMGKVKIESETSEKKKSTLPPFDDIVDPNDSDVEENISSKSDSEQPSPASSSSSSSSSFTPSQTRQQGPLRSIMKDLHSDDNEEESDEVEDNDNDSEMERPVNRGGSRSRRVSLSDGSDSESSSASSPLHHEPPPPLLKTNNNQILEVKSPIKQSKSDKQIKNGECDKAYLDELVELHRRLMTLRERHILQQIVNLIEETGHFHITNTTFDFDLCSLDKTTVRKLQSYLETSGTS

Structure (SMILES)	activity change, negative = inhibition	AC50
O=C(NN1C(=O)/C(=C/c2ccc(O)c(O)c2)SC1=S)c1ccccc1	inactive	
CCOC(=O)C1CCCN(C2=C(NS(=O)(=O)c3ccc(Br)cc3)C(=O)c3ccccc3C2=O)C1 (stereo not drawn)	inactive	
Cn1c(=O)cc2c3c(c(N4CCCCC4)ccc31)C(=O)c1ccccc1-2		8.32 µM
O=c1c2ccccc2nc(/C=C/c2cccnc2)n1Cc1ccccc1	inactive	
C[C@@H]1CN([C@@H](C)CO)C(=O)Cc2cc(N(C)C)ccc2O[C@H]1CN(C)Cc1ccc(Cl)c(Cl)c1	inactive	
C#CCOCCOCCOCCNc1nc(N2CCN(C(=O)[C@H](CCCCN)n3cc(CCCC)nn3)CC2)nc(N2CCN(C(=O)[C@H](CCCCN)n3cc(CCCC)nn3)CC2)n1		11.3 µM
O=C(N/N=C/c1c(O)ccc2ccccc12)c1ccc[n+](CCO)c1		0.257 µM
O=[N+]([O-])c1cc(/C=N/Nc2nc3ccccc3[nH]2)c(O)cc1O	inactive	
c1cc2c3c(cccc3c1)NC(c1ccc3c(c1)OCO3)N2	inactive	
O=C(Cc1cccnc1)N1CC(=O)N2[C@H](C1)[C@H](c1ccc(C3=CCCC3)cc1)[C@@H]2CO	inactive	
COc1ccc2[nH]c3c(C)c4cc[n+](C)cc4c(C)c3c2c1		3.07 µM
C[C@H](CO)N1C[C@H](C)[C@H](CN(C)CC2CC2)OCCCC[C@H](C)Oc2ccc(NC(=O)Nc3ccc4c(c3)OCO4)cc2C1=O	inactive	
CCOc1ccc(OCCSc2ccc(S(=O)(=O)N3CCN(C)CC3)cn2)cc1	inactive	
Cc1ccc(NC(=S)N/N=C/c2ccc([N+](=O)[O-])s2)cc1	inactive	
CNC(=S)N1N=C(c2ccc(C)cc2)CC1c1ccc(N(C)C)cc1 (stereo not drawn)	inactive	
COc1ccc(N=C2S/C(=C\c3ccc(Cl)c([N+](=O)[O-])c3)C(=O)N2CCN(C)C)cc1	inactive	
CS(=O)(=O)N1CCCCN2[C@H](C1)[C@H](c1ccc(C#Cc3ccccn3)cc1)[C@@H]2CO		7.82 µM
O=C(C[C@H]1CC[C@@H]2[C@H](COC[C@@H](O)CN2S(=O)(=O)c2ccc(F)cc2)O1)NCC1CCCCC1	inactive	
O=C(NCCCN1CCCC1=O)C1CCN(S(=O)(=O)c2cccc(C(F)(F)F)c2)CC1	inactive	
N=C(N)c1ccc(/C=C/c2ccc(C(=N)N)cc2O)cc1		3.33 µM
Cc1ccc2c(c1)c1c3n2CCCN(Cc2ccccc2)C3CCC1 (stereo not drawn)	inactive	

Structure (SMILES)	activity change, negative = inhibition	AC50
O=C(NCCc1cccc(F)c1)C1CCCN(c2nc3ccccc3s2)C1 (stereo not drawn)	inactive	
c1ccc2c(c1)nc(Nc1ccc(N3CCCCC3)cc1)c1nncn12	inactive	
COc1cc(OC)c2c(-c3ccccc3)cc(=O)oc2c1C(CCN1CCOCC1)c1ccc(N(C)C)cc1 (stereo not drawn)	inactive	
CCN(CC)c1ccc(CNc2nc3ccccc3n2CCN2CCCCC2)cc1		5.83 µM
O=c1[nH]c2ccccc2n1C1CCN(C(c2nnnn2C2CCCCC2)C2CC2)CC1 (stereo not drawn)		11.1 µM
CC1C(=NO)C(C)C(c2ccc(N(C)C)cc2)NC1c1ccc(N(C)C)cc1 (stereo not drawn)		10.4 µM
Cc1nn(-c2ccccc2)c(Cl)c1/C=C1\C(=O)N(C)C(=S)N1C	inactive	
COc1cc(OC)c2c(-c3ccccc3)cc(=O)oc2c1C(CCN1CCCCC1)c1ccc2c(c1)OCO2 (stereo not drawn)		1.08 µM
Cc1ccn2c(Nc3ccc4c(c3)OCO4)c(-c3ccccn3)nc2c1		3.55 µM
CN(C)c1ccc2nc3ccc(=O)cc-3sc2c1		11.3 µM
CCc1nc2ccc(C(=O)NC3CCN(Cc4ccccc4)CC3)cn2c1N(C)Cc1ccc(N(C)C)cc1		5.52 µM
COc1ccc(NCc2nn(CC(=O)c3ccc(Br)cc3)c3[n+]2CCCCC3)cc1		8.83 µM
CCN1/C(=C/C(C)=C/c2sc3ccccc3[n+]2CC)Sc2ccccc21		5.6 µM
Fc1ccc(-[n+]2nc(Nc3ccccc3)sc2-c2c(Cl)cccc2Cl)cc1	inactive	
c1ccc(C2=Nc3c(ccc4ccccc34)C(c3ccncc3)=NN2)cc1	inactive	
CCN1C(=O)/C(=C\C(=O)c2cccs2)c2cc(Br)ccc21	inactive	
CCN(Cc1ccccc1)c1ccc(/C=N/N=C(N)N)cc1		4.43 µM
CN(C)c1ccc(Nc2nc(N)c3ccccc3n2)cc1		7.47 µM
O=S(=O)(c1ccc(Cl)cc1)N1CCN(Cc2ccc(O)c3ncccc23)CC1	inactive	
CN(C)c1ccc(/C=C/c2cc[n+](C)c3ccccc23)cc1		1.05 µM
O=C1c2c(O)ccc(O)c2C(=O)c2c(NCCNCCO)ccc(NCCNCCO)c21		0.15 µM and 0.374 µM

Structure (SMILES)	activity change, negative = inhibition	AC50
COc1cc(O)c(C(CCN2CCCCC2)c2ccc(N(C)C)cc2)c(OC)c1 (stereo not drawn)		10.2 µM
COc1cc(/C=N/N=C(N)N)ccc1OCc1ccc(Cl)cc1	inactive	
CCc1ccc(OCCNc2cc(N3CCNC(C)C3)ccc2[N+](=O)[O-])cc1 (stereo not drawn)	inactive	
CCN(CC)c1ccc(C(=C2C=CC(=[N+](CC)CC)C=C2)c2ccccc2)cc1		0.685 µM
Cn1c(SCC(=O)N2c3ccccc3Sc3ccc(Cl)cc32)nnc1-c1ccco1	inactive	
CN(C)CCNc1ncnc2c1sc1nc(-c3ccccc3)c3c(c12)CCCC3		6.89 µM
NC(N)=N/N=C/c1cn(-c2ccccc2)nc1-c1cccs1		3.92 µM
Cc1ccc2ccc(C(Nc3cccc(C(F)(F)F)c3)c3cccnc3)c(O)c2n1 (stereo not drawn)	inactive	
CCN(CC)c1ccc(/C=C/c2ccc3ccc(OC)cc3[n+]2CC)cc1		2.36 µM
COC1=C(Nc2ccc(O)cc2)C(=O)c2ccccc2C1=O		9.8 µM
c1ccc2c(Nc3ccc4c(c3)OCCO4)c3c(nc2c1)CCCC3	inactive	
CCc1ccc(-c2nc(CSCC(=O)N3CCN(c4ncccn4)CC3)c(C)o2)cc1	inactive	
Cc1ccc2nc(-c3ccccn3)c(NC3CCCC3)n2c1	inactive	
CCOc1cc(/C=N/N=C(N)N)ccc1OCc1ccc(Cl)cc1	inactive	
Cc1cc(N=Nc2ccc(Cl)cc2)cc(CN2CCOCC2)c1O	inactive	
CCN(CC)CCNc1cccc2sc3ccccc3c(=O)c12	inactive	
CN(C)c1cccc2c(C=C(C#N)C#N)ccc(N(C)C)c12		1.04 µM
CC(=O)OCCNc1cc(N2CCN(C)CC2)c2noc3c2c1C(=O)c1ccccc1-3		1.94 µM
Oc1ccccc1C=NCCCCCCN=Cc1ccccc1O	inactive	
CC(C)Nc1ccc(Nc2ccccc2)cc1		10.9 µM
COc1cc(NCCCCCCN)c2ncccc2c1OC		2.62 µM

Structure (SMILES)	activity change, negative = inhibition	AC50
CC(C)N1CCN(c2ccc(OC[C@H]3CO[C@](Cn4cncn4)(c4ccc(Cl)cc4Cl)O3)cc2)CC1	inactive	
COc1ccc(CN2CCC(N(CCc3ccccc3)Cc3ccccc3)CC2)c(OC)c1	inactive	
CC(=NNC(=S)N1CCN(C2CCCCCC2)CC1)c1ccccn1		0.687 µM
Cc1ccc(Nc2cc(C)nc3c(C)ccc([N+](=O)[O-])c23)cc1	inactive	
CN1CCN(C(c2ccc(C(F)(F)F)cc2)c2cc(Cl)c3cccnc3c2O)CC1 (stereo not drawn)		1.54 µM
Cc1cccc(N=NC(=S)NNc2cccc(C)c2)c1		0.212 µM
C[C@H](CO)N1C[C@H](C)[C@H](CN(C)Cc2ccc(C(F)(F)F)cc2)OCCCC[C@H](C)Oc2ccc(N(C)C)cc2C1=O	inactive	
COc1ccc2ccccc2c1-c1sc(Nc2ccccc2)n[n+]1-c1ccc(F)cc1	inactive	
Cc1cccc(-c2ccc3[nH]c4c(c3c2)CCN2C[C@H]3[C@H](C)ON(C)[C@H]3C[C@@H]42)c1	inactive	
O=C1c2ccccc2-c2onc3ccc(N4CCCC4)c1c23		5.49 µM
COc1ccccc1NC(c1cccnc1)c1ccc2cccnc2c1O (stereo not drawn)	inactive	
COc1cccc(CNCCc2c[nH]c3ccccc23)c1OCc1ccccc1		11.5 µM
N#C/C(C(N)=O)=c1/ccc2c(c1)N1C3=C(CCCC3)CC3CCCCC31N=2 (stereo not drawn)		0.767 µM
COc1ccc(/C=N/N2CCN(c3ccccc3OC)CC2)cc1Br	inactive	
CSCCC(c1nnnn1C1CCCCC1)N1CCC(n2c(=O)[nH]c3ccccc32)CC1 (stereo not drawn)	inactive	
O=C(Nc1ccc(N2CCCCCC2)cc1)c1ccc[nH]1		5.21 µM
Cc1c(C)n(Cc2ccccc2)c2ccc(C(=O)OCCN(C)C)cc12	inactive	
O=C(CN1CCCC1)N/N=C/c1c(O)ccc2ccccc12		0.249 µM
CN=c1scc(-c2cccs2)n1/N=C/c1ccccc1O	inactive	
C#CCOCCOCCOCCNc1nc(N2CCN(C(=O)[C@H](CCCCN)n3cc(CN)nn3)CC2)nc(N2CCN(C(=O)[C@H](CCCN=C(N)N)n3cc(C(N)[C@H](C)CC)nn3)CC2)n1 (stereo partly drawn)		2.81 µM
